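The compound was tested at five concentrations on cells cultured in 96-well plates, with a 48-hour exposure period. Here, GI50 denotes the concentration required for 50% inhibition of growth.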 Active and inactive are the calls of the source. Rule as the data show it: active = GI50 up to about 1.1 µM and inactive = higher.
Experiments:
Test in all cases: growth of human tumour cells (NCI), 48 h
786-0 = tested on: 786-0
A498 = tested on: A498
A549 = tested on: A549
ACHN = tested on: ACHN
BT-549 = tested on: BT-549
CAKI-1 = tested on: CAKI-1
CCRF-CEM = tested on: CCRF-CEM
COLO 205 = tested on: COLO 205
DU-145 = tested on: DU-145
EKVX = tested on: EKVX
HCC 2998 = tested on: HCC 2998
HCT-116 = tested on: HCT-116
HCT-15 = tested on: HCT-15
HL-60 = tested on: HL-60
HOP-62 = tested on: HOP-62
HOP-92 = tested on: HOP-92
HT-29 = tested on: HT-29
Hs-578T = tested on: Hs-578T
IGROV-1 = tested on: IGROV-1
K562 = tested on: K562
KM12 = tested on: KM12
LOX IMVI = tested on: LOX IMVI
M14 = tested on: M14
MCF7 = tested on: MCF7
MDA-MB-231 = tested on: MDA-MB-231
MDA-N = tested on: MDA-N
MOLT-4 = tested on: MOLT-4
Malme-3M = tested on: Malme-3M
NCI-H226 = tested on: NCI-H226
NCI-H23 = tested on: NCI-H23
NCI-H460 = tested on: NCI-H460
NCI-H522 = tested on: NCI-H522
NCI/ADR-RES = tested on: NCI/ADR-RES
OVCAR-3 = tested on: OVCAR-3
OVCAR-4 = tested on: OVCAR-4
OVCAR-5 = tested on: OVCAR-5
OVCAR-8 = tested on: OVCAR-8
RPMI-8226 = tested on: RPMI-8226
SF-295 = tested on: SF-295
SF-539 = tested on: SF-539
SK-MEL-2 = tested on: SK-MEL-2
SK-MEL-5 = tested on: SK-MEL-5
SK-OV-3 = tested on: SK-OV-3
SN12C = tested on: SN12C
SNB-19 = tested on: SNB-19
SNB-75 = tested on: SNB-75
SR = tested on: SR
SW-620 = tested on: SW-620
T47D = tested on: T47D
TK-10 = tested on: TK-10
U-251 = tested on: U-251
UACC-257 = tested on: UACC-257
UACC-62 = tested on: UACC-62
UO-31 = tested on: UO-31
MDA-MB-435 = tested on: MDA-MB-435
PC-3 = tested on: PC-3
SF-268 = tested on: SF-268
SK-MEL-28 = tested on: SK-MEL-28
RXF 393 = tested on: RXF 393

## COc1cc([C@@H]2c3cc4c(cc3[C@@H](Nc3ccc(NC(=O)c5cc(NC(=O)c6cc([N+](=O)[O-])cn6C)cn5C)cc3)[C@H]3COC(=O)[C@H]23)OCO4)cc(OC)c1O
786-0
  GI50: 0.593 µM (active)
A498
  GI50: 1.35 µM (inactive)
A549
  GI50: 0.239 µM (active)
ACHN
  GI50: 0.2 µM (active)
BT-549
  GI50: > 100 µM (inactive)
CAKI-1
  GI50: 0.323 µM (active)
CCRF-CEM
  GI50: 0.154 µM (active)
COLO 205
  GI50: 2.31 µM (inactive)
DU-145
  GI50: 0.374 µM (active)
EKVX
  GI50: > 40.1 µM (inactive)
HCC 2998
  GI50: 6.04 µM (inactive)
HCT-116
  GI50: 0.149 µM (active)
HCT-15
  GI50: 5.73 µM
HL-60
  GI50: 0.16 µM (active)
HOP-62
  GI50: 0.361 µM (active)
HOP-92
  GI50: 0.885 µM (active)
HT-29
  GI50: 0.355 µM (active)
Hs-578T
  GI50: > 48.4 µM (inactive)
IGROV-1
  GI50: 0.216 µM (active)
K562
  GI50: 0.0493 µM (active)
KM12
  GI50: 12.5 µM (inactive)
LOX IMVI
  GI50: 0.274 µM (active)
M14
  GI50: 1.78 µM (inactive)
MCF7
  GI50: 0.047 µM (active)
MDA-MB-231
  GI50: > 38.8 µM (inactive)
MDA-N
  GI50: 0.0308 µM (active)
MOLT-4
  GI50: < 0.0209 µM (active)
Malme-3M
  GI50: 4.35 µM (inactive)
NCI-H226
  GI50: 0.334 µM (active)
NCI-H23
  GI50: 0.465 µM (active)
NCI-H460
  GI50: 0.0303 µM (active)
NCI-H522
  GI50: 0.261 µM (active)
NCI/ADR-RES
  GI50: 0.573 µM (active)
OVCAR-3
  GI50: > 49.4 µM (inactive)
OVCAR-4
  GI50: > 43.7 µM (inactive)
OVCAR-5
  GI50: > 61.4 µM (inactive)
OVCAR-8
  GI50: 0.76 µM (active)
RPMI-8226
  GI50: 0.0324 µM (active)
SF-295
  GI50: 1.57 µM (inactive)
SF-539
  GI50: 0.364 µM (active)
SK-MEL-2
  GI50: > 100 µM (inactive)
SK-MEL-5
  GI50: 0.188 µM (active)
SK-OV-3
  GI50: 11.6 µM (inactive)
SN12C
  GI50: 3.73 µM (inactive)
SNB-19
  GI50: 15.8 µM (inactive)
SNB-75
  GI50: 4.89 µM (inactive)
SR
  GI50: 0.0159 µM (active)
SW-620
  GI50: 2.72 µM (inactive)
T47D
  GI50: 31.1 µM (inactive)
TK-10
  GI50: > 65.8 µM (inactive)
U-251
  GI50: 10.3 µM (inactive)
UACC-257
  GI50: 0.687 µM (active)
UACC-62
  GI50: 0.453 µM (active)
UO-31
  GI50: 5.22 µM (inactive)

## O=C1CCCCC/C1=C\c1cccc(Cl)c1
786-0
  GI50: 41.1 µM (inactive)
A498
  GI50: > 100 µM (inactive)
A549
  GI50: 63.2 µM (inactive)
ACHN
  GI50: 28.2 µM (inactive)
BT-549
  GI50: 43.2 µM (inactive)
CAKI-1
  GI50: 72.6 µM (inactive)
CCRF-CEM
  GI50: 4.06 µM (inactive)
COLO 205
  GI50: 35.3 µM (inactive)
DU-145
  GI50: > 100 µM (inactive)
EKVX
  GI50: 50.9 µM (inactive)
HCC 2998
  GI50: 41.7 µM (inactive)
HCT-116
  GI50: 40.2 µM (inactive)
HCT-15
  GI50: 32.2 µM
HOP-62
  GI50: > 100 µM (inactive)
HOP-92
  GI50: 35.6 µM (inactive)
HT-29
  GI50: 38.6 µM (inactive)
Hs-578T
  GI50: 35.9 µM (inactive)
IGROV-1
  GI50: 46.2 µM (inactive)
KM12
  GI50: 30.8 µM (inactive)
LOX IMVI
  GI50: 41.5 µM (inactive)
M14
  GI50: 32.4 µM (inactive)
MDA-MB-231
  GI50: > 100 µM (inactive)
MDA-MB-435
  GI50: 31 µM (inactive)
MDA-N
  GI50: 45.4 µM (inactive)
MOLT-4
  GI50: 27.4 µM (inactive)
Malme-3M
  GI50: 42.9 µM (inactive)
NCI-H226
  GI50: 34.4 µM (inactive)
NCI-H23
  GI50: 42.9 µM (inactive)
NCI-H460
  GI50: 29.6 µM (inactive)
NCI-H522
  GI50: 39.2 µM (inactive)
OVCAR-3
  GI50: 71.3 µM (inactive)
OVCAR-4
  GI50: 26.5 µM (inactive)
OVCAR-5
  GI50: > 100 µM (inactive)
PC-3
  GI50: 22.5 µM (inactive)
RPMI-8226
  GI50: 20 µM (inactive)
SF-268
  GI50: 22 µM (inactive)
SF-295
  GI50: 20 µM (inactive)
SK-MEL-28
  GI50: 49.4 µM (inactive)
SK-MEL-2
  GI50: 46.5 µM (inactive)
SK-MEL-5
  GI50: 25.4 µM (inactive)
SK-OV-3
  GI50: > 100 µM (inactive)
SN12C
  GI50: 93.8 µM (inactive)
SNB-19
  GI50: > 100 µM (inactive)
SNB-75
  GI50: 48.5 µM (inactive)
SR
  GI50: 20.4 µM (inactive)
SW-620
  GI50: 20.8 µM (inactive)
T47D
  GI50: > 100 µM (inactive)
U-251
  GI50: 47.2 µM (inactive)
UACC-257
  GI50: 42.1 µM (inactive)
UACC-62
  GI50: 45.9 µM (inactive)
UO-31
  GI50: 24.1 µM (inactive)

## O=C(O)C(=C\c1ccc2c(c1)OCO2)/C(=C/c1ccc2c(c1)OCO2)C(=O)O
A498
  GI50: > 100 µM (inactive)
BT-549
  GI50: > 100 µM (inactive)
CAKI-1
  GI50: > 100 µM (inactive)
CCRF-CEM
  GI50: > 100 µM (inactive)
COLO 205
  GI50: > 100 µM (inactive)
DU-145
  GI50: > 100 µM (inactive)
HCC 2998
  GI50: > 100 µM (inactive)
HCT-116
  GI50: > 100 µM (inactive)
HCT-15
  GI50: > 100 µM
HL-60
  GI50: > 100 µM (inactive)
HOP-62
  GI50: > 100 µM (inactive)
HOP-92
  GI50: > 100 µM (inactive)
HT-29
  GI50: > 100 µM (inactive)
Hs-578T
  GI50: > 100 µM (inactive)
IGROV-1
  GI50: > 100 µM (inactive)
K562
  GI50: > 100 µM (inactive)
KM12
  GI50: > 100 µM (inactive)
LOX IMVI
  GI50: > 100 µM (inactive)
M14
  GI50: > 100 µM (inactive)
MCF7
  GI50: > 100 µM (inactive)
MDA-MB-435
  GI50: > 100 µM (inactive)
MDA-N
  GI50: > 100 µM (inactive)
MOLT-4
  GI50: > 100 µM (inactive)
Malme-3M
  GI50: > 100 µM (inactive)
NCI-H226
  GI50: > 100 µM (inactive)
NCI-H23
  GI50: > 100 µM (inactive)
NCI-H460
  GI50: > 100 µM (inactive)
NCI/ADR-RES
  GI50: > 100 µM (inactive)
OVCAR-3
  GI50: > 100 µM (inactive)
OVCAR-4
  GI50: > 100 µM (inactive)
OVCAR-5
  GI50: > 100 µM (inactive)
OVCAR-8
  GI50: > 100 µM (inactive)
PC-3
  GI50: > 100 µM (inactive)
RPMI-8226
  GI50: > 100 µM (inactive)
RXF 393
  GI50: > 100 µM (inactive)
SF-295
  GI50: > 100 µM (inactive)
SK-MEL-28
  GI50: > 100 µM (inactive)
SK-MEL-2
  GI50: > 100 µM (inactive)
SK-MEL-5
  GI50: > 100 µM (inactive)
SK-OV-3
  GI50: > 100 µM (inactive)
SN12C
  GI50: > 100 µM (inactive)
SNB-19
  GI50: > 100 µM (inactive)
SNB-75
  GI50: > 100 µM (inactive)
SR
  GI50: > 100 µM (inactive)
SW-620
  GI50: > 100 µM (inactive)
T47D
  GI50: > 100 µM (inactive)
TK-10
  GI50: > 100 µM (inactive)
U-251
  GI50: > 100 µM (inactive)
UACC-257
  GI50: > 100 µM (inactive)
UACC-62
  GI50: > 100 µM (inactive)
UO-31
  GI50: > 100 µM (inactive)
